Assays:
Janus kinase 2 (Jak2) = experiment: attenuation of Compound A effects by Jak2 inhibitor; conditions: both in vitro and in vivo
From the text: (§1) All of these events were reported to be important in the development of Cerebral Malaria (CM).

sepsis-induced death = sepsis-induced death in rodents (survival study); type: in vivo
Description: FIG. 5 is a graph showing results of a study that indicates α7 agonists can prevent sepsis-induced death in rodents. Survival was monitored daily from day 0 to day 6. In the vehicle control group there was a 13% survival by day 6. In the animals treated with 0.003 mg/kg Compound B, there was a 13% survival by day (NS, p=0.360). In the animals treated with 0.03 mg/kg Compound B, there was also a 13% survival by day (NS, p=0.528). […] Survival was 47% in this group, a significant improvement in survival (p=0.005).

TNF = TNF expression
From the text: as §1

[1] = system: more than 60 receptors and enzymes
VCAM-1 = experiment: TNFα-induced production of VCAM-1 in human brain microvascular endothelial cells; type: cell-based; conditions: TNF-treated human brain microvascular endothelial cells (MVECs)
From the text: as §1

microglia = experiment: LPS-induced microglial inflammation in vivo; conditions: LPS 1 mg/kg i.p. on days 1, 3 and 5
Description: Animals were treated with either vehicle and 8% 2H2O label for 1 week. LPS (1 mg/kg, i.p) was injected on days 1, 3 and 5 of drug treatment and label. Microglia were isolated from brain and sorted by flow cytometry as CD11b+, F4/80+ cells. DNA was isolated from sorted microglia cells, hydrolyzed and derivatized for GC/MS analyses.

hippocampal neurogenesis = hippocampal neurogenesis in vivo; conditions: 1 week treatment, 2H2O label
ICAM-1 = experiment: TNFα-induced production of ICAM-1 in human brain microvascular endothelial cells; type: cell-based; conditions: TNF-treated human brain microvascular endothelial cells (MVECs)
From the text: as §1

**Q.** With N#C/C(=C/c1ccc(O)c(O)c1)C(=O)NCc1ccccc1 [AG-490] as the compound, how does the “effect on the effects of Compound A” value (Janus kinase 2 (Jak2)) read?
**A.** The value was “attenuates the effects of Compound A”.

**Q.** Which results are given for O=C(N[C@@H]1C2CCN(CC2)[C@H]1Cc1cccnc1)c1cc2ccccc2o1 [Compound B, (2S,3R)-N-(2-((3-pyridinyl)methyl)-1-azabicyclo[2.2.2]oct-3-yl)benzofuran-2-carboxamide]?
**A.** survival by day 6 (sepsis-induced death; 0.003 mg/kg, NS, p=0.360, vehicle control 13%): 13%; survival by day 6 (sepsis-induced death; 0.03 mg/kg, NS, p=0.528, vehicle control 13%): 13%; survival by day 6 (sepsis-induced death; 0.3 mg/kg, p=0.005, vehicle control 13%): 47%

**Q.** Cc1ccc(C(=O)N[C@@H]2C3CCN(CC3)[C@H]2Cc2cccnc2)s1 [Compound A, (2S,3R)-N-(2-((3-pyridinyl)methyl)-1-azabicyclo[2.2.2]oct-3-yl)-5-methylthiophene-2-carboxamide] was tested. Which TNF expression (TNF) did it give?
**A.** Its TNF expression is “significantly inhibits TNF expression”.

**Q.** What about the “separation with other targets” value [1] of the same compound?
**A.** The value was 100-1000.

**Q.** What about the “levels of VCAM-1 expression” value (VCAM-1) of the same compound?
**A.** Its value is “decreases the levels of ICAM-1 and VCAM-1 expression”.

**Q.** And the microglial inflammation (microglia)?
**A.** The microglial inflammation was “prevents microglial inflammation in vivo”.

**Q.** And the hippocampal neurogenesis (hippocampal neurogenesis)?
**A.** The hippocampal neurogenesis was “promotes hippocampal neurogenesis in vivo”.

**Q.** And the “levels of ICAM-1 expression” value (ICAM-1)?
**A.** The value was “decreases the levels of ICAM-1 and VCAM-1 expression”.

— US20090239901A1, “METHOD AND COMPOSITIONS FOR TREATMENT OF CEREBRAL MALARIA” (priority 2008, published 2009)
